Results as given in patent publication US20120029187A1, “HALOALKYLSULFONANILIDE DERIVATIVE” (Nissan Chemical Industries, Ltd., priority 2009, published 2012).

How the values were obtained:
Format in all cases: in vivo
[1] = tested on: transplanted rice; experiment: Test Example 1: preemergence treatment under submerged conditions, effect on crop; conditions: dose 2.52 g/a
From the text: (§1) Test on the Herbicidal Effects in Preemergence Treatment on Weeds Under Submerged Conditions
(§2) Alluvial soil was put in 1/30000-are styrol cups and admixed with water so that it was submerged at a depth of 4 cm. In each cup, seeds of barnyardgrass, bulrush and ducksalad were sown together, and rice seedlings at the 2.5-leaf stage were transplanted. On the same day as the seeding, emulsifiable concentrates containing compounds of the present invention formulated in accordance with Formulation Example 2 were applied to the water surfaces at predetermined doses after diluted with water. The cups were placed in a greenhouse at 25 to 30° C. to grow the plants. Three weeks after the application, the herbicidal effects against various plants were determined on the following evaluation scale.
(§3) 5 mortality of 90% or above (nearly complete death)
(§4) 4 mortality of at least 70% and less than 90%
(§5) 3 mortality of at least 40% and less than 70%
(§6) 2 mortality of at least 20% and less than 40%
(§7) 1 mortality of at least 5% and less than 20%
(§8) 0 mortality of less than 5% (almost ineffective)
(§9) A: barnyardgrass, B: bulrush, C: ducksalad, D: large crabgrass, E: giant foxtail, F: wild oat, G: water foxtail, H: Italian ryegrass, I: velvetleaf, J: common ragweed, K: redroot pigweed, L: common lambsquater, M: posumbu knotweed, N: common chickweed, O: beadstraw, a: transplanted rice, b: corn, c: soybean, d: direct-seeded rice, e: wheat, f: sugar beet.
(§10) The doses (g/a) represents the amounts in g per 1 are (a) applied after adjustment of concentration adjustment.

[2] = tested on: barnyardgrass; experiment: Test Example 2: herbicidal effects during the vegetation period under submerged conditions; conditions: treatment during the vegetation period under submerged conditions; dose 2.52 g/a
Description: (§11) Test on the Herbicidal Effects on Weeds During the Vegetation Period Under Submerged Conditions
(§12) Alluvial soil was put in 1/30000-are styrol cups and admixed with water so that it was submerged at a depth of 4 cm. In each cup, seeds of barnyardgrass, bulrush and ducksalad were sown together, and the cups were placed in a greenhouse at 25 to 30° C. to grow the plants. When the barnyardgrass, bulrush and ducksalad reached the 1- or 2-leaf stage, emulsifiable concentrates containing compounds of the present invention formulated in accordance with Formulation Example 2 were applied to the water surfaces at predetermined doses after diluted with water. Three weeks after the application, the herbicidal effects against various plants were determined on the same evaluation scale as in Test Example 1.
as §9, §10

[3] = tested on: ducksalad; experiment: as above; conditions: treatment during the vegetation period under submerged conditions; dose 2.52 g/a
Description: as §11, §12, §9, §10

[4] = tested on: bulrush; experiment: as above; conditions: treatment during the vegetation period under submerged conditions; dose 2.52 g/a
Description: as §11, §12, §9, §10

[5] = tested on: water foxtail; experiment: Test Example 4: herbicidal effect in foliage treatment; conditions: dose 3.2 g/a, three weeks after the application
From the text: (§13) Test on the Herbicidal Effect in Foliage Treatment
(§14) Sterilized diluvial soil was put in plastic boxes with a length of 21 cm, a width of 13 cm and a depth of 7 cm, and seeds of barnyardgrass, large crabgrass, giant foxtail, wild oat, blackgrass, velvetleaf, common ragweed, redroot pigweed, common lambsquater, posumbu knotweed, common chickweed, corn, soybean, rice, wheat and sugar beet were sown in spots and covered with an about 1.5 cm-thick soil layer. The boxes were placed in a greenhouse at 25 to 30° C. to grow the plants. After 14 days, emulsifiable concentrates containing compounds of the present invention formulated in accordance with Formulation Example 2 were uniformly applied to the foliage at predetermined doses through a small sprayer after diluted with water. Three weeks after the application, the herbicidal effects against various plants were determined on the same evaluation scale as in Test Example 1.
as §9, §10

[6] = tested on: barnyardgrass; experiment: as above; conditions: dose 3.2 g/a, three weeks after the application
From the text: as §13, §14, §9, §10

[7] = tested on: redroot pigweed; experiment: as above; conditions: dose 3.2 g/a, three weeks after the application
From the text: as §13, §14, §9, §10

[8] = tested on: posumbu knotweed; experiment: as above; conditions: dose 3.2 g/a, three weeks after the application
From the text: as §13, §14, §9, §10

[9] = tested on: velvetleaf; experiment: as above; conditions: dose 3.2 g/a, three weeks after the application
From the text: as §13, §14, §9, §10

[10] = tested on: common lambsquater; experiment: as above; conditions: dose 3.2 g/a, three weeks after the application
From the text: as §13, §14, §9, §10

[11] = tested on: large crabgrass; experiment: as above; conditions: dose 3.2 g/a, three weeks after the application
From the text: as §13, §14, §9, §10

[12] = tested on: giant foxtail; experiment: as above; conditions: dose 3.2 g/a, three weeks after the application
From the text: as §13, §14, §9, §10

[13] = tested on: common chickweed; experiment: as above; conditions: dose 3.2 g/a, three weeks after the application
From the text: as §13, §14, §9, §10

[14] = tested on: Italian ryegrass; experiment: as above; conditions: dose 3.2 g/a, three weeks after the application
From the text: as §13, §14, §9, §10

[15] = tested on: common ragweed; experiment: as above; conditions: dose 3.2 g/a, three weeks after the application
From the text: as §13, §14, §9, §10

[16] = tested on: water foxtail; experiment: Test Example 3: herbicidal effects in soil treatment; conditions: dose 3.2 g/a
From the text: (§15) Test on the Herbicidal Effects in Soil Treatment
as §14, with “chickweed” for “chickweed,”, “Emulsifiable” for “The boxes were placed in a greenhouse at 25 to 30° C. to grow the plants. After 14 days, emulsifiable”, “soil surfaces” for “foliage”, “dilute” for “diluted”
as §9, §10

[17] = tested on: barnyardgrass; experiment: as above; conditions: dose 3.2 g/a
From the text: as §15
as §14, with “chickweed” for “chickweed,”, “Emulsifiable” for “The boxes were placed in a greenhouse at 25 to 30° C. to grow the plants. After 14 days, emulsifiable”, “soil surfaces” for “foliage”, “dilute” for “diluted”
as §9, §10

[18] = tested on: redroot pigweed; experiment: as above; conditions: dose 3.2 g/a
From the text: as §15
as §14, with “chickweed” for “chickweed,”, “Emulsifiable” for “The boxes were placed in a greenhouse at 25 to 30° C. to grow the plants. After 14 days, emulsifiable”, “soil surfaces” for “foliage”, “dilute” for “diluted”
as §9, §10

[19] = tested on: posumbu knotweed; experiment: as above; conditions: dose 3.2 g/a
From the text: as §15
as §14, with “chickweed” for “chickweed,”, “Emulsifiable” for “The boxes were placed in a greenhouse at 25 to 30° C. to grow the plants. After 14 days, emulsifiable”, “soil surfaces” for “foliage”, “dilute” for “diluted”
as §9, §10

[20] = tested on: common lambsquater; experiment: as above; conditions: dose 3.2 g/a
From the text: as §15
as §14, with “chickweed” for “chickweed,”, “Emulsifiable” for “The boxes were placed in a greenhouse at 25 to 30° C. to grow the plants. After 14 days, emulsifiable”, “soil surfaces” for “foliage”, “dilute” for “diluted”
as §9, §10

[21] = tested on: large crabgrass; experiment: as above; conditions: dose 3.2 g/a
From the text: as §15
as §14, with “chickweed” for “chickweed,”, “Emulsifiable” for “The boxes were placed in a greenhouse at 25 to 30° C. to grow the plants. After 14 days, emulsifiable”, “soil surfaces” for “foliage”, “dilute” for “diluted”
as §9, §10

[22] = tested on: giant foxtail; experiment: as above; conditions: dose 3.2 g/a
From the text: as §15
as §14, with “chickweed” for “chickweed,”, “Emulsifiable” for “The boxes were placed in a greenhouse at 25 to 30° C. to grow the plants. After 14 days, emulsifiable”, “soil surfaces” for “foliage”, “dilute” for “diluted”
as §9, §10

[23] = tested on: common chickweed; experiment: as above; conditions: dose 3.2 g/a
From the text: as §15
as §14, with “chickweed” for “chickweed,”, “Emulsifiable” for “The boxes were placed in a greenhouse at 25 to 30° C. to grow the plants. After 14 days, emulsifiable”, “soil surfaces” for “foliage”, “dilute” for “diluted”
as §9, §10

[24] = tested on: Italian ryegrass; experiment: as above; conditions: dose 3.2 g/a
From the text: as §15
as §14, with “chickweed” for “chickweed,”, “Emulsifiable” for “The boxes were placed in a greenhouse at 25 to 30° C. to grow the plants. After 14 days, emulsifiable”, “soil surfaces” for “foliage”, “dilute” for “diluted”
as §9, §10

[25] = tested on: common ragweed; experiment: as above; conditions: dose 3.2 g/a
From the text: as §15
as §14, with “chickweed” for “chickweed,”, “Emulsifiable” for “The boxes were placed in a greenhouse at 25 to 30° C. to grow the plants. After 14 days, emulsifiable”, “soil surfaces” for “foliage”, “dilute” for “diluted”
as §9, §10

[26] = tested on: barnyardgrass; experiment: Test Example 1: herbicidal effects in preemergence treatment under submerged conditions; conditions: dose 2.52 g/a
From the text: as §1, §2, §3, §4, §5, §6, §7, §8, §9, §10

[27] = tested on: ducksalad; experiment: as above; conditions: dose 2.52 g/a
From the text: as §1, §2, §3, §4, §5, §6, §7, §8, §9, §10

[28] = tested on: bulrush; experiment: as above; conditions: dose 2.52 g/a
From the text: as §1, §2, §3, §4, §5, §6, §7, §8, §9, §10

CCOC(=O)N(c1ccccc1CN1COC(C)C(C)C1=O)S(=O)(=O)C(F)(F)F (stereo not shown) [II-71]
a: transplanted rice, effect on crop (evaluation scale 0-5) [1]: 0 (mortality of less than 5% (almost ineffective))
A: barnyardgrass, herbicidal effect (evaluation scale 0-5) [2]: 5 (mortality of 90% or above (nearly complete death))
C: ducksalad, herbicidal effect (evaluation scale 0-5) [3]: 5 (mortality of 90% or above (nearly complete death))
B: bulrush, herbicidal effect (evaluation scale 0-5) [4]: 5 (mortality of 90% or above (nearly complete death))
G: water foxtail, herbicidal effect [5]: 5 (mortality of 90% or above (nearly complete death))
A: barnyardgrass, herbicidal effect [6]: 5 (mortality of 90% or above (nearly complete death))
K: redroot pigweed, herbicidal effect [7]: 0 (mortality of less than 5% (almost ineffective))
M: posumbu knotweed, herbicidal effect [8]: 0 (mortality of less than 5% (almost ineffective))
I: velvetleaf, herbicidal effect [9]: 5 (mortality of 90% or above (nearly complete death))
L: common lambsquater, herbicidal effect [10]: 0 (mortality of less than 5% (almost ineffective))
D: large crabgrass, herbicidal effect [11]: 4 (mortality of at least 70% and less than 90%)
E: giant foxtail, herbicidal effect [12]: 4 (mortality of at least 70% and less than 90%)
N: common chickweed, herbicidal effect [13]: 4 (mortality of at least 70% and less than 90%)
H: Italian ryegrass, herbicidal effect [14]: 1 (mortality of at least 5% and less than 20%)
J: common ragweed, herbicidal effect [15]: 3 (mortality of at least 40% and less than 70%)
G: water foxtail, herbicidal effect (evaluation scale 0-5) [16]: 5 (mortality of 90% or above (nearly complete death))
A: barnyardgrass, herbicidal effect (evaluation scale 0-5) [17]: 5 (mortality of 90% or above (nearly complete death))
K: redroot pigweed, herbicidal effect (evaluation scale 0-5) [18]: 5 (mortality of 90% or above (nearly complete death))
M: posumbu knotweed, herbicidal effect (evaluation scale 0-5) [19]: 3 (mortality of at least 40% and less than 70%)
L: common lambsquater, herbicidal effect (evaluation scale 0-5) [20]: 0 (mortality of less than 5% (almost ineffective))
D: large crabgrass, herbicidal effect (evaluation scale 0-5) [21]: 5 (mortality of 90% or above (nearly complete death))
E: giant foxtail, herbicidal effect (evaluation scale 0-5) [22]: 4 (mortality of at least 70% and less than 90%)
N: common chickweed, herbicidal effect (evaluation scale 0-5) [23]: 3 (mortality of at least 40% and less than 70%)
H: Italian ryegrass, herbicidal effect (evaluation scale 0-5) [24]: 2 (mortality of at least 20% and less than 40%)
J: common ragweed, herbicidal effect (evaluation scale 0-5) [25]: 5 (mortality of 90% or above (nearly complete death))
A: barnyardgrass, herbicidal effect (evaluation scale 0-5) [26]: 5 (mortality of 90% or above (nearly complete death))
C: ducksalad, herbicidal effect (evaluation scale 0-5) [27]: 5 (mortality of 90% or above (nearly complete death))
B: bulrush, herbicidal effect (evaluation scale 0-5) [28]: 5 (mortality of 90% or above (nearly complete death))
